Results published in patent publication US11932610B1, “4-(5-(3-fluorophenyl)-4-phenyl-4H-1,2,4-triazol-3-ylthio)butanoic acid as an antimicrobial compound” (priority 2023, dated 2024).

Columns and labels:
[1] = system: Bacillus cereus, Staphylococcus aureus, Pseudomonas aeruginosa, Escherichia coli, Aspergillus flavus, Chrysosporium keratinophilum; experiment: agar plate disc-diffusion antimicrobial test; format: cell-based; conditions: 6 mm discs wetted with 10 μL of 10 mg/mL in DMSO; 37° C., 48 h (72 h for fungi); DMSO control zone subtracted
Description: The agar plate disc-diffusion method was applied. Sterilized filter papers (6 mm in diameter) were wetted with 10 μL of a solution of 4-(5-(3-fluorophenyl)-4-phenyl-4H-1,2,4-triazol-3-ylthio)butanoic acid (III) to be tested, containing 10 mg/mL in DMSO, and the discs were allowed to air dry. The discs were then placed onto the surface of agar plates (nutrient agar for bacteria and Sabouraud's dextrose agar for fungi) seeded with the test organism. Each plate contained 15 mLof the agar medium, previously seeded with 0.2 mL of the broth culture of each organism pregrown for 18 h. The plates were incubated at 37° C. for 48 h, and 72 h for fungi. The inhibition zones was measured in mm. Discs impregnated with DMSO were used as a control, and its inhibition zone was subtracted from the tested compound actual inhibition zone. […] The antibacterial activity was screened against gram positive bacteria namely Bacillus cereus and Staphylococcus aureus and gram-negative bacterial strains namely Pseudomonas aeruginosa and Escherichia coli, while the antifungal activity was screened against Aspergillus flavus and Chrysosporium keratinophilum.

- melting point: 173 °C
SMILES: O=C(O)CCCSc1nnc(-c2cccc(F)c2)n1-c1ccccc1 [III, 4-(5-(3-fluorophenyl)-4-phenyl-4H-1,2,4-triazol-3-ylthio)butanoic acid]
- antimicrobial activities against different microbes [1]: excellent antimicrobial activities
